Source: patent publication US20150219624A1, “METHODS FOR IDENTIFYING ANTI-CANCER COMPOUNDS” (MEMORIAL SLOAN KETTERING CANCER CENTER, priority 2013, published 2015)

Columns and labels:
KOPTK1 cells = assay: Metabolic labeling of nascent protein with L-azidohomoalanine (AHA); type: cell-based, human; conditions: 100 nM; p vs. vehicle 2×10−4
Method: (Non-radioactive) Metabolic labeling of nascent protein. KOPTK1 cells were labeled for nascent protein synthesis using Click-iTR AHA (L-azidohomoalanine) metabolic labeling reagent obtained from Invitrogen (cat no. C10102) as per manufacturer's instructions. Briefly, following silvestrol, Cycloheximide or DMSO treated cells were incubated in methionine free medium for 30 min prior to AHA labeling for 1 hr. Cells were fixed with 4% paraformaldehyde in PBS for 15 min, permeablized with 0.25% Triton X-100 in PBS for 15 min followed by one wash with 3% BSA. Cells were then stained using Alexa Fluor 488 Alkyne (Invitrogen cat no. A10267) with Click-iT Cell reaction Buffer Kit (Invitrogen cat no. C10269). Changes in mean fluorescence intensity as a measure of newly synthesized protein was detected by Flow cytometry analysis.
The number of ribosomes occupying a given transcript is given as gene specific RF reads per one million total reads (RPM).
FIG. 10 depicts ribosome profiling quality control data and effects on translation. A and B) Read counts by length of mapped sequence before and after filtering rRNA, linker reads, non-coding RNAs, short mapped sequences (“noisy” reads; see text and method for details). C and D) Read length frequency histograms and mapping analysis of ribosome footprint data after quality control filtering for vehicle treated cells (C) or silvestrol treated cells (D). […]

[1] = tested on: cap-dependent translation; assay: Dual-luciferase reporter assay (capped vs IRES-driven luciferase); type: cell-based; conditions: renilla and firefly luciferase either capped or under control of an IRES element
Method: Luciferase assays. Four tandem repeats of the (CGG)4 12-mer motif (GQs) or random sequence matched for length and GC content (random) were cloned into the 5′UTR of Renilla luciferase plasmid pGL4.73. Empty firefly luciferase plasmid pGL4.13 or HCV-IRES firefly were used as internal controls. Luciferase assays were performed using Dual-Luciferase Reporter Assay System (Promega E1960) following the manufacturer's instructions. GQs sequence: […]

| SMILES | max. reduction of nascent protein synthesis (AHA labeling) (KOPTK1 cells) [%] | block of cap-dependent versus IRES-dependent translation [1] |
| --- | --- | --- |
| C[C@@H]1C[C@@H]([C@H](O)CC2CC(=O)NC(=O)C2)C(=O)[C@@H](C)C1 [cycloheximide, Cycloheximide] | 80 | – |
| C[C@H]1C[C@@]2(O[C@H]3C[C@H]4[C@@H]5CC[C@H]6C[C@H](O)CC[C@]6(C)[C@H]5[C@@H](O)C[C@]4(C)[C@H]3[C@@]2(C)O)OC1(C)C [hippuristanol] | – | preferentially block cap-dependent over IRES-dependent translation |
| CC(/C=C/C(C)=C/[C@@H]1Cc2nc(cs2)[C@@H](C)C[C@@H](N)CC(=O)O[C@@H](C)C/C(C)=C/C=C\C(=O)O1)=C\CN(C)C [pateamine A, (3S,6Z,8E,11S,15R,17S)-15-amino-3-[(1E,3E,5E)-7-(dimethylamino)-2,5-dimethylhepta-1,3,5-trienyl]-9,11,17-trimethyl-4,12-dioxa-20-thia-21-azabicyclo[16.2.1]henicosa-1(21),6,8,18-tetraene-5,13-dione] | – | preferentially block cap-dependent over IRES-dependent translation |
